“Also recorded” adds a separate entry of the source. One block for each compound: values may come before it.
Legend:
[1] = tested on: ROCK1; assay: ROCK1 cleavage in doxorubicin-treated cultured neonatal rat cardiomyocytes (Western blot); type: cell-based
From the text: To determine if ROCK1 is cleaved by caspase 3 in apoptotic cardiomyocytes, the present inventors subjected cultured rat neonatal cardiomyocytes to doxorubicin treatment, which is a potent apoptotic inducer. The 130 kDa cleavage fragment of ROCK1 was detected in doxorubicin-treated myocytes as well as the cleaved PARP. In contrast, cleavage of ROCK2 was not observed. In addition, cleavage of ROCK1 is caspase 3-dependent, as the 130 kDa species was not detected in the presence of caspase 3 inhibitor, Z-VAD.
(§1) Cell culture, plasmid constructs, and recombinant adenoviruses. Neonatal rat cardiomyocytes were isolated and cultured in DMEM/F12 medium (1:1) with 10% horse serum (DF10); cells were ready for transfection or virus infection 40 hours after plating. For immunostaining, cells were cultured on pre-coated (with 0.2% gelatin) coverslips. Transfections were performed using LipofectAMINE 2000 (Invitrogen) with Opti-MEM I Reduced Serum Medium (Invitrogen). After 6 hr or O/N, cells were cultured in DF10. With human embryonic kidney (HEK) A293T cells, cells were cultured in DMEM with 10% fetal bovine serum. The cDNA for full length human ROCK-1 cloned into the pCAG-myc vector (pCAG-ROCK-1) was kindly provided by Dr. Narumiya. All ROCK-1 and mutant constructs were tagged with a Myc epitope at the amino-terminus. The Asp718-MscI cDNA fragment encoding ROCKΔ1 mutant (residues 1-1080) was also cloned into the pCAG-myc vector (pCAG-ROCKΔ1) (Ishizaki et al., 1997). A signal lysine at residue 105 was replaced by alanine to generate a kinase deficient mutant, pCAG-ROCK-1KD. The adenoviral vector, Ad-G/iCasp 3, expressing conditional caspase 3, was generously provided by Drs. David Spencer and Kevin Slawin at Baylor College of Medicine. Addition of CID, AP20187 (50 nM, 24 hr), provoked the aggregation and activation of caspase 3 as well as rapid apoptosis (Shariat et al., 2001; Mallet et al., 2002).
Western blot and Malachite green assay. Anti-ROCK-1, caspase 3, PARP, His, α-actin antibodies (Santa Cruz), anti-phospho-AKTser473 (Cell Signaling) and anti-RTEN (Upstate) were purchased. Protein samples for Western blot were prepared and separated as described earlier (Chang et al., 2000). Even loadings were confirmed by Ponceau staining and antibody probed for actin. PTEN activity was evaluated by Malachite green assay (Upstate). 500 μg of cell lysate protein was used for immunoprecipitation.

[2] = tested on: angiotensin II-infused rats; conditions: administration of fasudil; cited from earlier work
[3] = tested on: human growth hormone (hGH) transgene; assay: Cardiac-specific RU486-inducible gene-switch expression of human growth hormone in bi-transgenic mice; type: in vivo, mouse; conditions: after 4 days of administration, dose-dependent, estimated
Procedure: Expression of the transgene is induced in all 4 chambers of the bi-transgenic hearts by administration of RU486 for 4 days. […] The serum level of hGH was measured by radioimmunoassay.

[4] = tested on: conditional caspase 3 (iCasp3); assay: ROCK1 cleavage in cardiomyocytes infected with Ad-G/iCasp3 (conditional caspase 3) and treated with CID; type: cell-based, rat; conditions: for 130 kDa cleavage fragment of ROCK1: cardiomyocytes infected with Ad-G/iCasp3 and treated with CID
From the text: To analyze direct effect of caspase 3 activation on ROCK1 cleavage, the present inventors introduced a conditional caspase 3 via an adenoviral-mediated expression system in cultured rat neonatal cardiomyocytes. The adenoviral vector, Ad-G/iCasp3, has been described previously (Shariat et al., 2001; Mallet et al., 2002). This vector expresses a conditional caspase 3 (iCasp3), in which the human caspase 3 was fused to a modified FK506-binding domain, containing a binding site for a non-toxic chemical inducer of dimerization (CID), AP20187. Addition of CID leads to the aggregation and activation this caspase, and a rapid apoptosis in prostate cancer cells (Shariat et al., 2001; Mallet et al., 2002). This is depicted in FIG. 8C.
as §1, with “Addition of CID, AP20187 (50 nM, 24 hr), provoked the aggregation and activation of caspase 3 as well as rapid apoptosis (Shariat et al., 2001; Mallet et al., 2002).” left out

[5] = tested on: myeline basic protein (MBP) kinase (MBP-kinase); assay: Kinase-Glo luminescent kinase assay; type: biochemical; conditions: SRF-N as substrate, ATP
Procedure: In a particular embodiment, the Kinase-Glo luminescent kinase assay from Promega (Madison, Wis.) is employed, which comprises a method of measuring kinase activity by quantifying the amount of ATP remaining in solution following a kinase reaction. […] In additional embodiments, the Km and/or kcat for SRF-N against MBP-Kinase and the IC50 or Ki for PH domain are measured, such as by standard methods in the art.
FIG. 25B illustrates the role of ROCK in processing of its substrates in the presence of ATP.

[6] = tested on: protein kinases A and C; conditions: lower affinity than that for Rho kinase; cited from earlier work
[7] = tested on: Dahl salt-sensitive hypertensive rats; conditions: administration to Dahl salt-sensitive hypertensive rats; cited from earlier work
[8] = tested on: early chick embryos; conditions: treated early chick embryos; cited from earlier work
[9] = tested on: caspase 3; assay: Ceramide-induced caspase 3 activation and apoptosis in cardiomyocytes (caspase 3 sensor, fluorescent staining); type: cell-based, rat; conditions: without siRNA treatment
Procedure: Apoptosis assay and immunofluorescence analysis. Apoptosis was evaluated using caspase 3 activity and poly(ADP-ribose) polymerase (PARP) cleavage with Western blot in human and mouse heart tissues. With regard to apoptotic cultured neonatal cardiomyocytes, a caspase 3 sensor (BD Biosciences) was introduced to detect the onset of caspase 3 activity (FIG. 9). The vector encodes EYFP (enhanced yellow fluorescent protein) fused with NES (nuclear export signal) and NLS (nuclear localization signal). A caspase 3 specific cleavage site is located between EYFP and NES. […] Upon induction of apoptosis, the export signal is removed by active caspase 3, which triggers the redistribution of EYFP from the cytosol to the nucleus via NLS. The quantification was performed by counting the number of transfected cells with the nuclear localization of fluorescent fusion protein over the total transfected cells. Alexa Fluor 594 phalloidin staining (Molecular Probes) and DAPI staining were applied for F-actin and cellular nuclei visualization, respectively.
siRNAs application for ROCK-1 and PTEN knockdown and ceramide-induced apoptosis. To knockdown ROCK-1 expression in neonatal rat cardiomyocytes, 100 nM siRNA (Ambion) was used with co-transfection of caspase 3 sensor vector as described above. Same amount of siRNA specific for PTEN (Ambion) was applied to human HEK cells. […]

[10] = doxorubicin-treated myocytes, Western blot

Compound: COc1cccc2c1C(=O)c1c(O)c3c(c(O)c1C2=O)C[C@@](O)(C(=O)CO)C[C@@H]3O[C@H]1C[C@H](N)[C@H](O)[C@H](C)O1 [doxorubicin]
- cleavage of ROCK2 ([1]; doxorubicin-treated myocytes): not observed
- 130 kDa cleavage fragment of ROCK1 [1, 10]: detected; also recorded: revealed cleavages
- cleaved PARP [1, 10]: detected; also recorded: revealed cleavages
- cleavage of SRF ([1]; doxorubicin-treated neonatal cardiomyocytes, data not shown): not detectable

Compound: Z-VAD
- 130 kDa ROCK1 species in presence of caspase 3 inhibitor ([1]; doxorubicin-treated myocytes plus inhibitor): not detected; also recorded: blocked the cleavage

Compound: O=S(=O)(c1cccc2cnccc12)N1CCCNCC1 [fasudil]
- effect on angiotensin II-induced cardiovascular changes [2]: suppresses angiotensin II-induced coronary vascular hypertrophy, endothelial dysfunction and cardiomyocyte hypertrophy

Compound: CC#C[C@]1(O)CC[C@H]2[C@@H]3CCC4=CC(=O)CCC4=C3[C@@H](c3ccc(N(C)C)cc3)C[C@@]21C [RU486]
- inducible level of hGH in the transgenic heart versus the basal level [3]: 100 to 1000 fold

- cleavage of SRF ([4]; Ad-G/iCasp3 in the presence of CID, data not shown): not detectable
- 130 kDa cleavage fragment of ROCK1 [4]: detected
Compound: CC[C@H](C(=O)N1CCCC[C@H]1C(=O)O[C@H](CCc1ccc(OC)c(OC)c1)c1cccc(OCC(=O)NCC(CNC(=O)COc2cccc([C@@H](CCc3ccc(OC)c(OC)c3)OC(=O)[C@@H]3CCCCN3C(=O)[C@@H](CC)c3cc(OC)c(OC)c(OC)c3)c2)CN(C)C)c1)c1cc(OC)c(OC)c(OC)c1 [AP20187]
- 130 kDa cleavage fragment of ROCK1 ([4]; listed as CID): cleavage of ROCK-1 only in the presence of CID

- inhibition activity against MBP-kinase [5]: inhibition activity
Compound: C[C@@H](N)[C@H]1CC[C@H](C(=O)Nc2ccncc2)CC1 [Y27632]
- affinity for protein kinases A and C relative to Rho kinase [6]: about 200 times
- effect on cardiac hypertrophy and remodeling [7]: regression of cardiac hypertrophy and decreased pathological remodeling
- expression of cardiac α-actin (early cardiac differentiation marker) [8]: precocious expression of cardiac α-actin was observed

Compound: ceramide
- induction of caspase 3 activation and cellular apoptosis [9]: strongly induced caspase 3 activation

— patent publication US20060142193A1, “Selective inhibition of rock1 in cardiac therapy” (BAYLOR COLLEGE OF MEDICINE, priority 2004, published 2006)
